How the values were obtained:
[1] = molecular target: RON (Homo sapiens, UniProt Q04912); experiment: Evaluation of inhibitory activity against RON (TR-FRET); format: biochemical; conditions: TR-FRET kinase assay, RON protein
Description: In order to measure the inhibitory activity of each of the compounds of Examples against RON, the IC50 of each of the compounds was measured using a Time-Resolved Fluorescence Energy Transfer Chemistry (TR-FRET).
(§1) Specifically, the compound was prepared to a concentration of 1 mM with 100% DMSO and was diluted 10 times in a stepwise manner through 3-fold dilution. 2 ul of the compound diluted in a stepwise manner was added to a 96-well-plate containing 48 ul of a 1×kinase reaction buffer (50 mM HEPES (pH 7.4), 0.01% Tween-20, 5 mM DTT, 0.5 mM Na3VO4, 2 mM EGTA, 10 mM MgCl2).
The RON protein was diluted to a concentration of 49.3 nM with an RON storage buffer (50 mM Tris-HCl (pH 7.5), 150 mM NaCl, 0.5 mM EDTA, 0.02% Triton X-100), and then diluted again to a concentration of 0.4 nM with a 1×kinase reaction buffer. As a substrate cocktail, a RON-specific substrate mixture (40 uM ULight-labeled Poly GT, 100 nM ATP) at a concentration 2 times the final reaction concentration.
(§2) Thereafter, a 384-well-plate was prepared, and 2.5 μl of each of the diluted compounds of Examples was added to a corresponding well of experimental group wells, and 2.5 μl of a 4% DMSO solution was dispensed into high control wells and low control wells.
(§3) Thereafter, 2.5 μL of 0.4 nM RON was dispensed into the high control wells and the experimental group wells, and 2.5 μL of a 1× kinase reaction buffer was added to the low control wells, and the RON and the reaction buffer were centrifuged at room temperature for 40 seconds at 1000 RPM, and then incubated at room temperature for 20 to 30 minutes. Then, 5 uL of a substrate cocktail (2×) was dispensed into all wells, centrifuged at room temperature for 40 seconds at 1000 RPM, and then incubated at room temperature for 60 minutes. Thereafter, 5 uL of 30 mM EDTA was added to all wells to terminate the reaction, and then incubated again at room temperature for 5 minutes. Thereafter, 5 uL of a 4× phosphotyrosine antibody (Perkin Elmer) containing europium was added to all wells, and then incubated at room temperature for 60 minutes. After the incubation, the 384-well-plate was read with a Vison plate reader. At this time, the excitation wavelength was 340 nm, and the emission wavelength was 620 nm and 665 nm. The IC50 value of the compound of each Example was derived using the GraphPd Prism7 program.

[2] = molecular target: cMET (Homo sapiens, UniProt P08581); experiment: Evaluation of inhibitory activity against MET (TR-FRET); format: biochemical; conditions: TR-FRET kinase assay, cMET protein
Chain of cMET (P08581 25-1390): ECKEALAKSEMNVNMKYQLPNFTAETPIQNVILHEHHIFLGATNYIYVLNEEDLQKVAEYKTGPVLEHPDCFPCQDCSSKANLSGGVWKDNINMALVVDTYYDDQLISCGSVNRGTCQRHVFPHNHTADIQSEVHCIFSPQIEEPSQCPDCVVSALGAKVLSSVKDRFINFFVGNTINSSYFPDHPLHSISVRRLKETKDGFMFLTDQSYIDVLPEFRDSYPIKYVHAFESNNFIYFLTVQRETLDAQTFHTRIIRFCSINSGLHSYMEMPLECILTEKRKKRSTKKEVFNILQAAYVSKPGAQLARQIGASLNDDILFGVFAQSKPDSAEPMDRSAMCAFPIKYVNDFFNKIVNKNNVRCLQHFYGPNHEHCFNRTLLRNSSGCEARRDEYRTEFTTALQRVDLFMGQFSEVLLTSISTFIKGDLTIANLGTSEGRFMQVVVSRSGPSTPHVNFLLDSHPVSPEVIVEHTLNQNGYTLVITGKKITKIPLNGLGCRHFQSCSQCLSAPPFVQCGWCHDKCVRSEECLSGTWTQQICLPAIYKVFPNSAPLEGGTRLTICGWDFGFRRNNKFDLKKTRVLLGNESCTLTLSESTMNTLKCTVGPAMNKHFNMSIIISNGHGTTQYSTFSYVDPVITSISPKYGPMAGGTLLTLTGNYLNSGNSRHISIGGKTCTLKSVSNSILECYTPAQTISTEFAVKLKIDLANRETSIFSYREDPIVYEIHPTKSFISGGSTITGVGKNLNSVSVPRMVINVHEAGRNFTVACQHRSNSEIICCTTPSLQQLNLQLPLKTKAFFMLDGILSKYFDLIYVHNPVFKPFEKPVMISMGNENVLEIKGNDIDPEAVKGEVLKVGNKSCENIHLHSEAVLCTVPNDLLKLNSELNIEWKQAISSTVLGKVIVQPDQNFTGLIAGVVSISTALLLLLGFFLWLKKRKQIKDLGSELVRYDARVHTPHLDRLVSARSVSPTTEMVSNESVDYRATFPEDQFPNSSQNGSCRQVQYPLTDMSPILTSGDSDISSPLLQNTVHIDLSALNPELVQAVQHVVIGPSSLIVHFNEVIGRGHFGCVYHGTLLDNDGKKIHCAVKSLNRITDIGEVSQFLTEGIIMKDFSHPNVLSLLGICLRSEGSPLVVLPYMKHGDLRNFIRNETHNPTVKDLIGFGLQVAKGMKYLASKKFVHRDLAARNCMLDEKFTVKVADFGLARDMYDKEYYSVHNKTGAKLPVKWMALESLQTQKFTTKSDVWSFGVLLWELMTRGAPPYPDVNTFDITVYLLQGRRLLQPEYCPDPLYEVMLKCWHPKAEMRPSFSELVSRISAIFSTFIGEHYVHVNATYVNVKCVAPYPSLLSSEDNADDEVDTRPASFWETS
Description: In addition, in order to measure the enzyme activity inhibition for cMET, the evaluation was performed in the same manner as the enzyme activity inhibition measurement experiment for the RON.
as §1, with “a 1× kinase” for “a 1×kinase”, “7.4), 0.05% BSA, 0.005%” for “7.4), 0.01%”, “Tween-20, 1” for “Tween-20, 5”, “mM MnCl2, 20” for “mM Na3VO4, 2 mM EGTA, 10”
The cMET protein was diluted to a concentration of 263 nM with a cMET storage buffer (50 mM Tris-HCl (pH 7.5), 150 mM NaCl, 0.05% Brij35, 1 mM DTT, 10% Glycerol), and then diluted again to a concentration of 2 nM with a 1× kinase reaction buffer. As a substrate cocktail, a MET-specific substrate mixture (5 uM TK peptide, […]) at a concentration 2 times the final reaction concentration.
as §2
as §3, with “of 2” for “of 0.4”, “nM cMET” for “nM RON”, “of 90” for “of 30”, “The […]” for “The IC50”

Chain of RON (Q04912 25-1400, species assumed): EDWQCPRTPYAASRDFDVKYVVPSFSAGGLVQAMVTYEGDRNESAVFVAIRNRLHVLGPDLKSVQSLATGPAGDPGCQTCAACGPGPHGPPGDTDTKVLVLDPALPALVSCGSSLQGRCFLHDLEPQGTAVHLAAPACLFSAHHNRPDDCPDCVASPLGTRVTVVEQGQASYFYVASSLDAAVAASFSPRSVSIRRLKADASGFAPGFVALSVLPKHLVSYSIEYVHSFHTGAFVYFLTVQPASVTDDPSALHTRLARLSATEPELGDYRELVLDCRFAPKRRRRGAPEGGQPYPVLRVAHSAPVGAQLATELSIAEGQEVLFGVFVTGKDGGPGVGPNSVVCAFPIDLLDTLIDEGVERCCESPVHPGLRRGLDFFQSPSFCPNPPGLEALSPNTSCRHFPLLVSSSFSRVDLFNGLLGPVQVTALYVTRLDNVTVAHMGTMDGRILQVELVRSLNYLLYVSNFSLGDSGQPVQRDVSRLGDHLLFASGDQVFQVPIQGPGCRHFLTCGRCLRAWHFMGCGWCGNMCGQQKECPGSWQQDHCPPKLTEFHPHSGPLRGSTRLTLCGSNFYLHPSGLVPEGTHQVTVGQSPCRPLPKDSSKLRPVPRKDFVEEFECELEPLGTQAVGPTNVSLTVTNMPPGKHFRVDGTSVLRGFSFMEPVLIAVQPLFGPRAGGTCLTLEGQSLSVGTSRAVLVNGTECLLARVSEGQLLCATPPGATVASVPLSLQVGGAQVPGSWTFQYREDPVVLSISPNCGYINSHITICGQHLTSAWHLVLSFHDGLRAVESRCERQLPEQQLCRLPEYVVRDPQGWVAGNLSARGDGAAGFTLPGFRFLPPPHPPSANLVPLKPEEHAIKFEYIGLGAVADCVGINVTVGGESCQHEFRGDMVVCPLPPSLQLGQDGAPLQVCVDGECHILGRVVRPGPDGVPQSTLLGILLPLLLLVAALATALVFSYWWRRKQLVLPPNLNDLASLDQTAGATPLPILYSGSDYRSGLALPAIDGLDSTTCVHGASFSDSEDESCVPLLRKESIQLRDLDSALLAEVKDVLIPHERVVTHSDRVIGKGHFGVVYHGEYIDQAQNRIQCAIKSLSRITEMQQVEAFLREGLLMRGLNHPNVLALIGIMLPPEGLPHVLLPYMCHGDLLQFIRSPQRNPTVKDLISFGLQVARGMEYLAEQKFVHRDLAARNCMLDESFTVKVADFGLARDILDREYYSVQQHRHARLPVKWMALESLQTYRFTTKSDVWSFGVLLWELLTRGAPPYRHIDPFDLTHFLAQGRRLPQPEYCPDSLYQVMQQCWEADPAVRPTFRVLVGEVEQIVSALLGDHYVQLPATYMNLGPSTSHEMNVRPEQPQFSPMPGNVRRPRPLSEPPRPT

| Compound | IC50 [1] | IC50 [2] |
| --- | --- | --- |
| CCc1c(C(=O)Nc2ccc(Oc3ccnc4[nH]c(=O)n(C5CCCC5)c34)c(F)c2)cnn1-c1cncnc1 [Example 6, N-(4-((1-cyclopentyl-2-oxo-2,3-dihydro-1H-imidazo[4,5-b]pyridine-7-yl)oxy)-3-fluorophenyl)-5-ethyl-1-(pyrimidine-5-yl)-1H-pyrazole-4-carboxamide] | 0.05 to 0.5 µM | > 5 µM |
| CC(C)n1c(=O)[nH]c2nccc(Oc3ccc(NC(=O)c4cnn(-c5ccc(Cl)cn5)c4C(F)(F)F)cc3F)c21 [Example 11, 1-(5-chloropyridine-2-yl)-N-(3-fluoro-4-((1-isopropyl-2-oxo-2,3-dihydro-1H-imidazo[4,5-b]pyridine-7-yl)oxy)phenyl)-5-(trifluoromethyl)-1H-pyrazole-4-carboxamide] | 0.05 to 0.5 µM | > 5 µM |
| CCc1ccnc(-n2ncc(C(=O)Nc3ccc(Oc4ccnc5[nH]c(=O)n(C(C)C)c45)c(F)c3)c2C(F)(F)F)c1 [Example 30, 1-(4-ethylpyridine-2-yl)-N-(3-fluoro-4-((1-isopropyl-2-oxo-2,3-dihydro-1H-imidazo[4,5-b]pyridine-7-yl)oxy)phenyl)-5-(trifluoromethyl)-1H-pyrazole-4-carboxamide] | 0.05 to 0.5 µM | 0.5 to 5 µM |
| Cc1ccc(-n2ncc(C(=O)Nc3ccc(Oc4ccnc5[nH]c(=O)n(C(C)C)c45)c(F)c3)c2C(F)(F)F)nc1 [Example 9, N-(3-fluoro-4-((1-isopropyl-2-oxo-2,3-dihydro-1H-imidazo[4,5-b]pyridine-7-yl)oxy)phenyl)-1-(5-methylpyridine-2-yl)-5-(trifluoromethyl)-1H-pyrazole-4-carboxamide] | 0.05 to 0.5 µM | > 5 µM |
| O=C(Nc1ccc(Oc2ccnc3[nH]c(=O)n(C4CCOCC4)c23)c(F)c1)c1cnn(-c2ncccc2F)c1C(F)(F)F [Example 39, N-(3-fluoro-4-((2-oxo-1-(tetrahydro-2H-pyran-4-yl)-2,3-dihydro-1H-imidazo[4,5-b]pyridine-7-yl)oxy)phenyl)-1-(3-fluoropyridine-2-yl)-5-(trifluoromethyl)-1H-pyrazole-4-carboxamide] | < 0.05 µM | 0.5 to 5 µM |
| CC(C)n1c(=O)[nH]c2nccc(Oc3ccc(NC(=O)c4cnn(-c5cccc(C(F)(F)F)n5)c4C(F)(F)F)cc3F)c21 [Example 22, N-(3-fluoro-4-((1-isopropyl-2-oxo-2,3-dihydro-1H-imidazo[4,5-b]pyridine-7-yl)oxy)phenyl)-5-(trifluoromethyl)-1-(6-(trifluoromethyl)pyridine-2-yl)-1H-pyrazole-4-carboxamide] | 0.05 to 0.5 µM | > 5 µM |
| CC(C)n1c(=O)[nH]c2nccc(Oc3ccc(NC(=O)c4cnn(-c5cc(C(F)(F)F)ccn5)c4C(F)(F)F)cc3F)c21 [Example 17, N-(3-fluoro-4-((1-isopropyl-2-oxo-2,3-dihydro-1H-imidazo[4,5-b]pyridine-7-yl)oxy)phenyl)-5-(trifluoromethyl)-1-(4-(trifluoromethyl)pyridine-2-yl)-1H-pyrazole-4-carboxamide] | 0.05 to 0.5 µM | > 5 µM |

Continued, values first:

| IC50 [1] | IC50 [2] | Compound |
| --- | --- | --- |
| < 0.05 µM | > 5 µM | CC(C)n1c(=O)[nH]c2nccc(Oc3ccc(NC(=O)c4cnn(-c5cncnc5)c4C(F)(F)F)cc3F)c21 [Example 4, N-(3-fluoro-4-((1-isopropyl-2-oxo-2,3-dihydro-1H-imidazo[4,5-b]pyridine-7-yl)oxy)phenyl)-1-(pyrimidine-5-yl)-5-(trifluoromethyl)-1H-pyrazole-4-carboxamide] |
| < 0.05 µM | 0.5 to 5 µM | Cc1cnc(-n2ncc(C(=O)Nc3ccc(Oc4ccnc5[nH]c(=O)n(C(C)C)c45)c(F)c3)c2C(F)(F)F)nc1 [Example 36, N-(3-fluoro-4-((1-isopropyl-2-oxo-2,3-dihydro-1H-imidazo[4,5-b]pyridine-7-yl)oxy)phenyl)-1-(5-methylpyrimidine-2-yl)-5-(trifluoromethyl)-1H-pyrazole-4-carboxamide] |
| < 0.05 µM | > 5 µM | CC(C)n1c(=O)[nH]c2nccc(Oc3ccc(NC(=O)c4cnn(-c5ccc(F)cn5)c4C(F)(F)F)cc3F)c21 [Example 21, N-(3-fluoro-4-((1-isopropyl-2-oxo-2,3-dihydro-1H-imidazo[4,5-b]pyridine-7-yl)oxy)phenyl)-1-(5-fluoropyridine-2-yl)-5-(trifluoromethyl)-1H-pyrazole-4-carboxamide] |
| < 0.05 µM | 0.5 to 5 µM | CC(C)n1c(=O)[nH]c2nccc(Oc3ccc(NC(=O)c4cnn(-c5cccnc5)c4C(F)(F)F)cc3F)c21 [Example 23, N-(3-fluoro-4-((1-isopropyl-2-oxo-2,3-dihydro-1H-imidazo[4,5-b]pyridine-7-yl)oxy)phenyl)-1-(pyridine-3-yl)-5-(trifluoromethyl)-1H-pyrazole-4-carboxamide] |
| < 0.05 µM | 0.5 to 5 µM | CC(C)n1c(=O)[nH]c2nccc(Oc3ccc(NC(=O)c4cnn(-c5ncccc5Br)c4C(F)(F)F)cc3F)c21 [Example 19, 1-(3-bromopyridine-2-yl)-N-(3-fluoro-4-((1-isopropyl-2-oxo-2,3-dihydro-1H-imidazo[4,5-b]pyridine-7-yl)oxy)phenyl)-5-(trifluoromethyl)-1H-pyrazole-4-carboxamide] |
| < 0.05 µM | 0.5 to 5 µM | CC(C)n1c(=O)[nH]c2nccc(Oc3ccc(NC(=O)c4cnn(-c5nccc6ccccc56)c4C(F)(F)F)cc3F)c21 [Example 20, N-(3-fluoro-4-((1-isopropyl-2-oxo-2,3-dihydro-1H-imidazo[4,5-b]pyridine-7-yl)oxy)phenyl)-1-(isoquinoline-1-yl)-5-(trifluoromethyl)-1H-pyrazole-4-carboxamide] |
| < 0.05 µM | 0.5 to 5 µM | Cc1cccc(-n2ncc(C(=O)Nc3ccc(Oc4ccnc5[nH]c(=O)n(C(C)C)c45)c(F)c3)c2C(F)(F)F)n1 [Example 18, N-(3-fluoro-4-((1-isopropyl-2-oxo-2,3-dihydro-1H-imidazo[4,5-b]pyridine-7-yl)oxy)phenyl)-1-(6-methylpyridine-2-yl)-5-(trifluoromethyl)-1H-pyrazole-4-carboxamide] |
| < 0.05 µM | 0.5 to 5 µM | CC(C)n1c(=O)[nH]c2nccc(Oc3ccc(NC(=O)c4cnn(-c5ncccc5C(F)(F)F)c4C(F)(F)F)cc3F)c21 [Example 12, N-(3-fluoro-4-((1-isopropyl-2-oxo-2,3-dihydro-1H-imidazo[4,5-b]pyridine-7-yl)oxy)phenyl)-5-(trifluoromethyl)-1-(3-(trifluoromethyl)pyridine-2-yl)-1H-pyrazole-4-carboxamide] |
| < 0.05 µM | > 5 µM | CN1CCC(n2c(=O)[nH]c3nccc(Oc4ccc(NC(=O)c5cnn(-c6ncccc6F)c5C(F)(F)F)cc4F)c32)CC1 [Example 41, N-(3-fluoro-4-((1-(1-methylpiperidine-4-yl)-2-oxo-2,3-dihydro-1H-imidazo[4,5-b]pyridine-7-yl)oxy)phenyl)-1-(3-fluoropyridine-2-yl)-5-(trifluoromethyl)-1H-pyrazole-4-carboxamide] |

Source: patent US20240317739A1, “NOVEL UREA DERIVATIVE COMPOUND AS RON INHIBITOR” (LG CHEM, LTD., priority 2021, published 2024)
